Assays:
Format in all cases: in vivo, human
[1] = test system: patients undergoing esophagectomy; assay: Laboratory tests, nutrition status and hormone assays, preoperative and POD7
Method: (§1) The primary endpoint of this study was SIRS duration. The secondary endpoints were postoperative complications, serum C-reactive protein (CRP) and IL-6 levels, time required to attain a positive nitrogen balance, and changes in body weight and body composition. Postoperative complications were defined as adverse events caused by surgery. Patients received an intravenous continuous infusion of ghrelin (0.5 μg/kg/h) or placebo (pure saline) for 5 days postoperatively. Ghrelin was diluted to a final volume of 48 mL with saline, and the solution was administered at a rate of 2 mL/h by using an infusion pump through a central venous catheter inserted into the right subclavian vein. The same amount of ghrelin was administered via intravenous infusion during the 5 days of treatment; the dose was calculated on the basis of body weight on the day before surgery. Patients in the placebo group received the corresponding infusion containing pure saline using same procedure.
(§2) Blood sampling was performed at the following 7 time points: before surgery; 2 hours after initiation of surgery (during thoracotomy); 4 hours after initiation of surgery (during laparotomy); and on PODs 1, 3, 7, and 10. Complete blood count was performed every day for at least 10 PODs. If the leukocyte count was not within the normal range on POD10, complete blood counts were performed daily until it was within the normal range for 3 consecutive days. SIRS was diagnosed according to the criteria proposed by the American College of Chest Physicians/Society of Critical Care Medicine Consensus Conference^32 and when 2 or more of the following criteria were present: (1) body temperature less than 36° C. or more than 38° C.; (2) heart rate more than 90 beats per minute; (3) tachypnea with more than 20 breaths per minute or an arterial partial pressure of carbon dioxide less than 32 mm Hg; and (4) white blood cell count less than 4000 cells/mm^3, >12,000 cells/mm^3, or an immature (band) form more than 10%. Postoperative complications were evaluated according to the Clavien-Dindo classification.^33 Grade I required no treatment, grade II required medical therapy, grade Ma required interventions but not general anesthesia, grade Mb required general anesthesia, grade IV represented life-threatening states that required intensive care, and grade V represented death.
(§3) Sampled blood was immediately transferred into a chilled glass tube containing disodium ethylenediaminetetraacetic acid for plasma sampling or a separating agent for serum sampling, and the samples were then centrifuged at 4° C. Plasma samples were mixed with a 10% volume of 1 N HCl and stored at −80° C. Serum samples were directly stored at −80° C. Sandwich-type enzyme immunoassay kits were used to measure levels of plasma active ghrelin, des-acyl ghrelin, and serum IL-6 according to the manufacturers' protocols (for ghrelin: Mitsubishi Kagaku Iatron, Inc, Tokyo, Japan; for IL-6: R&D Systems, Minneapolis, Minn.). Total plasma ghrelin levels were calculated as the active ghrelin level plus the des-acyl ghrelin level.^34 An Access 2 kit, a chemiluminescent enzyme immunoassay (Beckman Coulter, Inc, Brea, Calif.), was used to measure serum GH levels.

interleukin-6 (IL-6) = assay: Postoperative change in serum IL-6 (enzyme immunoassay); conditions: n=20
Method: as §1, §2, §3

[2] = Plasma ghrelin concentration (enzyme immunoassay), randomized placebo-controlled phase II study
Source text: Forty patients with primary esophageal cancer who underwent esophagectomy were selected to participate in a randomized, placebo-controlled phase II study. The patients were selected based on the following eligibility criteria: (1) thoracic esophageal cancer treated by performing radical esophagectomy with gastric tube reconstruction; (2) age 20 to 75 years; (3) adequate functioning of major organs; (4) no other active malignancies; and (5) provision of written informed consent. The following exclusions criteria were used: (1) preoperative diagnosis of esophageal cancer invasion to the aorta or trachea and other organs; (2) patients with multiple cancer; (3) severe respiratory problems, such as emphysema; (4) patients with prior ischemic heart disease; (5) liver cirrhosis or active hepatitis; (6) renal failure requiring dialysis treatment; (7) poorly controlled diabetes mellitus or disease requiring insulin treatment; (8) consecutive use of steroids; and (9) mental disorder. The patients were randomly divided into a ghrelin group and a placebo group at a 1:1 ratio. The approach for thoracic manipulation (i.e., open or thoracoscopic surgery) was used as the only stratification factor. Group allocation was performed before the initiation of surgery. The study was performed in a double-blind manner, and an independent researcher assessed outcomes.
as §1, §2
Sampled blood was immediately transferred into a chilled glass tube containing disodium ethylenediaminetetraacetic acid for plasma sampling or a separating agent for serum sampling, and the samples were then centrifuged at 4° C. […]

[3] = test system: patients after esophagectomy; assay: Phase I study of ghrelin administration during the postoperative period after esophagectomy
[4] = test system: patients undergoing esophagectomy; assay: Adverse events attributable to ghrelin administration in the phase II study; conditions: during the study period; 0.5 μg/kg/h continuous i.v. for 5 days, n=20
Method: as §1
In total, 40 enrolled patients were randomized into either the ghrelin group (20 patients) or the placebo group (20 patients). All patients received the planned dose of ghrelin or placebo during the planned period. […]

C-reactive protein (CRP) = assay: Postoperative change in serum CRP; conditions: n=20
Method: as §1, §2

With `CCCCCCCC(=O)OC[C@H](NC(=O)[C@H](CO)NC(=O)CN)C(=O)N[C@@H](Cc1ccccc1)C(=O)N[C@@H](CC(C)C)C(=O)N[C@@H](CO)C(=O)N1CCC[C@H]1C(=O)N[C@@H](CCC(=O)O)C(=O)N[C@@H](Cc1cnc[nH]1)C(=O)N[C@@H](CCC(N)=O)C(=O)N[C@@H](CCCNC(=N)N)C(=O)N[C@H](C(=O)N[C@@H](CCC(N)=O)C(=O)N[C@@H](CCC(N)=O)C(=O)N[C@@H](CCCNC(=N)N)C(=O)N[C@@H](CCCCN)C(=O)N[C@@H](CCC(=O)O)C(=O)N[C@@H](CO)C(=O)N[C@@H](CCCCN)C(=O)N[C@@H](CCCCN)C(=O)N1CCC[C@H]1C(=O)N1CCC[C@H]1C(=O)N[C@@H](C)C(=O)N[C@@H](CCCCN)C(=O)N[C@@H](CC(C)C)C(=O)N[C@@H](CCC(N)=O)C(=O)N1CCC[C@H]1C(=O)N[C@@H](CCCNC(=N)N)C(=O)O)C(C)C` [ghrelin] the Alanine aminotransferase ([1]; Postoperative (POD7)) was 40.6 ± 24.6 IU/L, the Albumin ([1]; Postoperative (POD7)) was 2.99 ± 0.45 g/dL and the Asparate aminotransferase ([1]; Postoperative (POD7)) was 34.0 ± 15.9 IU/L. For the same compound, the Blood urea nitrogen ([1]; Postoperative (POD7)) was 19.3 ± 6.8 mg/dL, the Choline esterase ([1]; Postoperative (POD7)) was 154.1 ± 50.7 IU/L and the Creatinine ([1]; Postoperative (POD7)) was 0.77 ± 0.19. For the same compound, the Growth hormone ([1]; Postoperative (POD7)) was 1.08 ± 1.16 ng/mL, the Hemoglobin ([1]; Postoperative (POD7)) was 10.1 ± 1.3 g/dL and the Leukocytes ([1]; Postoperative (POD7)) was 9068 ± 2633 /mm. The Lymphocytes ([1]; Postoperative (POD7)) was 1380 ± 495 /mm, the Retinol binding protein ([1]; Postoperative (POD7)) was 3.63 ± 1.56 mg/dL and the Total bilirubin ([1]; Postoperative (POD7)) was 1.25 ± 0.80 mg/dL. It also gave a Total protein ([1]; Postoperative (POD7)) of 5.66 ± 0.70 g/dL, a Transferrin ([1]; Postoperative (POD7)) of 146.4 ± 35.3 mg/dL and a Transthyretin ([1]; Postoperative (POD7)) of 20.1 ± 6.7 mg/dL. For the same compound, the Alanine aminotransferase ([1]; Preoperative (baseline)) was 18.3 ± 14.1 IU/L, the Albumin ([1]; Preoperative (baseline)) was 3.78 ± 0.50 g/dL and the Asparate aminotransferase ([1]; Preoperative (baseline)) was 20.2 ± 7.2 IU/L. The Blood urea nitrogen ([1]; Preoperative (baseline)) was 15.1 ± 4.7 mg/dL, the Choline esterase ([1]; Preoperative (baseline)) was 263.5 ± 83.8 IU/L and the Creatinine ([1]; Preoperative (baseline)) was 0.88 ± 0.21. For the same compound, the Growth hormone ([1]; Preoperative (baseline)) was 0.51 ± 0.54 ng/mL, the Hemoglobin ([1]; Preoperative (baseline)) was 11.3 ± 1.5 g/dL and the Leukocytes ([1]; Preoperative (baseline)) was 5472 ± 1970 /mm. For the same compound, the Lymphocytes ([1]; Preoperative (baseline)) was 1644 ± 585 /mm, the Retinol binding protein ([1]; Preoperative (baseline)) was 4.86 ± 1.71 mg/dL and the Total bilirubin ([1]; Preoperative (baseline)) was 0.58 ± 0.20 mg/dL. The Total protein ([1]; Preoperative (baseline)) was 6.44 ± 0.59 g/dL, the Transferrin ([1]; Preoperative (baseline)) was 198.1 ± 30.8 mg/dL and the Transthyretin ([1]; Preoperative (baseline)) was 28.8 ± 9.1 mg/dL. The “Serum IL-6” value (interleukin-6 (IL-6); POD1) was 95.2 ± 131.0 pg/mL, the “Serum IL-6” value (interleukin-6 (IL-6); POD3) was 43.1 ± 47.1 pg/mL and the “Serum IL-6” value (interleukin-6 (IL-6); POD3, listed as Ghrelin) was 43.1 ± 47.1 pg/mL. The “Serum IL-6” value (interleukin-6 (IL-6); POD7) was 15.3 ± 11.3 pg/mL, the “Serum IL-6” value (interleukin-6 (IL-6); POD10) was 14.2 ± 17.9 pg/mL and the “Serum IL-6” value (interleukin-6 (IL-6); Preoperative (baseline)) was 4.3 ± 4.8 pg/mL. The Total ghrelin ([2]; Postoperative (POD7)) was 60.2 ± 34.1 imol/mL, the Total ghrelin ([2]; Preoperative (baseline)) was 106.6 ± 76.8 imol/mL and the level at time molar at 2 h ([2]; human, plasma, iv, 0.5 ug/kg/h, 2 hours after the start of injection, 0.5 μg/kg/h continuous i.v. infusion) was 0.743 ± 0.191 nM. The level at time molar at 4 h ([2]; human, plasma, iv, 0.5 ug/kg/h, 4 hours after the start of injection, 0.5 μg/kg/h continuous i.v. infusion) was 0.711 ± 0.146 nM, the level at time molar at 1 postoperative day ([2]; human, plasma, iv, 0.5 ug/kg/h, POD1, during infusion 0.5 μg/kg/h) was 0.749 ± 0.143 nM and the level at time molar at 3 postoperative day ([2]; human, plasma, iv, 0.5 ug/kg/h, POD3, during infusion 0.5 μg/kg/h) was 0.737 ± 0.199 nM. The level at time molar at 7 postoperative day ([2]; human, plasma, iv, 0.5 ug/kg/h, POD7, after administration of ghrelin) was 0.0602 ± 0.0341 nM, the level at time molar at 10 postoperative day ([2]; human, plasma, iv, 0.5 ug/kg/h, POD10, after administration of ghrelin) was 0.063 ± 0.031 nM and the level at time molar ([2]; human, plasma, iv, 0.5 ug/kg/h, before ghrelin administration (baseline), ghrelin group n=20) was 0.107 ± 0.0768 nM. The “systemic inflammation relative to conventional management protocols without ghrelin” value [3] was “tended to be suppressed”, the “effect on fundamental vital signs (blood pressure, heart rate, urine output, pulmonary and liver function)” value ([3]; postoperative intensive care management) was “did not affect fundamental vital signs” and the “adverse events attributable to ghrelin administration” value [4] was “No adverse events attributable to ghrelin administration were observed”. The “Serum CRP” value (C-reactive protein (CRP); POD1) was 6.6 ± 2.0 mg/dL, the “Serum CRP” value (C-reactive protein (CRP); POD3) was 11.1 ± 6.6 mg/dL and the “Serum CRP” value (C-reactive protein (CRP); POD3, listed as Ghrelin) was 11.1 ± 6.6 mg/dL. The “Serum CRP” value (C-reactive protein (CRP); POD7) was 4.3 ± 3.6 mg/dL, the “Serum CRP” value (C-reactive protein (CRP); POD7, listed as Ghrelin) was 4.3 ± 3.6 mg/dL and the “Serum CRP” value (C-reactive protein (CRP); POD10) was 2.1 ± 2.3 mg/dL. The “Serum CRP” value (C-reactive protein (CRP); POD10, listed as Ghrelin) was 2.1 ± 2.3 mg/dL and the “Serum CRP” value (C-reactive protein (CRP); Preoperative (baseline)) was 0.3 ± 0.5 mg/dL.

Reference: patent US9943569B2, “Method for preventing or reducing postoperative pulmonary complications” (OSAKA UNIVERSITY, priority 2015, dated 2018)
